Reference: patent publication US12245593B2, “Agricultural products and related methods” (priority 2017, dated 2025)

Test system: glyphosate-tolerant Palmer Amaranth (Amaranthus palmeri)
Assay type: in vivo
Settings: glyphosate 1.27 kg/ha; Composition C 1 liter/ha; two weeks after spraying
Experimental: Various plant treatment products comprising (i) select plant treatment components (e.g., pesticides, fungicides, herbicides) and (ii) one or more microbial fermentation product formulations (Composition A, B, C, and combinations) were tested on (1) rice (Oryza sativa) infected by Sheath Blight Rhizoctonia solani, (2) soybean (Glycine max) infected by Soybean Rust (Phakopsora pachyrhizi), (3) wheat (Triticum aestivum) infected by Stripe Rust (Puccinia striiformis), (4) corn (Zea mays) infected by Gray Leaf Spot (Cercospora zeae-maydis), (5) creeping bentgrass (Agrostis stolonifera) infected by dollar spot (Sclerotina homoeocarpa), and (6) glyphosate-tolerant Palmer Amaranth (Amaranthus palmeri) weed, and compared to controls, including plant treatment component(s) alone.
To test the effects of the inventive plant treatment product on weed survival in herbicide-tolerant Palmer Amaranth (Amaranthus palmeri) plants, the plant treatment product (Composition C+herbicide) or herbicide component (alone) were applied to weeds, in greenhouse conditions. […] The measurements of dry shoot mass and dry root mass were taken two weeks after spraying. […] Thus, the inventive plant treatment product can enhance herbicide susceptibility in herbicide-tolerant plants.

Compound: O=C(O)CNCP(=O)(O)O [Herbicide, glyphosate]
- Palmer Amaranth root dry weight per plant in greenhouse conditions: 0.768
- Palmer Amaranth root dry weight, change versus Untreated Control: −40.9%
- Palmer Amaranth root fresh weight per plant in greenhouse conditions: 4.70
- Palmer Amaranth root fresh weight, change versus Untreated Control: −51.3%
- Palmer Amaranth shoot dry weight per plant in greenhouse conditions: 5.31
- Palmer Amaranth shoot dry weight, change versus Untreated Control: −7.01%
- Palmer Amaranth shoot fresh weight per plant in greenhouse conditions: 15.0
- Palmer Amaranth shoot fresh weight, change versus Untreated Control: −20.6%
